# Measurements: patent US3962230A, “P-hydroxymethylphenylacetamidocephalosporins” (SmithKline & French Laboratories, Inc., priority 1975, dated 1976)
# Values joined by “and” are separate entries in the source; they are usually repeats but may differ in a detail not shown here. Equal values may be shown once. Read-outs that look alike come from different tables or passages of the source.
# How the values were obtained:
# S. aureus = assay: MIC vs S. aureus; assay type: cell-based; details: Staphylococcus aureus
# Strep. faecalis = assay: MIC vs Strep. faecalis; assay type: cell-based; details: Enterococcus faecalis
# E. coli [1] = assay: MIC vs E. coli; assay type: cell-based
# Klebs. pneumo. [2] = assay: MIC vs Klebs. pneumo.; assay type: cell-based
# Pseudomonas sp. = assay: MIC vs Pseudomonas sp.; assay type: cell-based
# Salmonella = assay: MIC vs Salmonella; assay type: cell-based
# Serratia marc. = assay: MIC vs Serratia marc.; assay type: cell-based
# Staph. Villaluz = assay: MIC vs Staph. Villaluz; assay type: cell-based
# E. coli [3] = assay: ED50 vs E. coli; assay type: in vivo; details: Escherichia coli
# Klebs. pneumo. [4] = assay: ED50 vs Klebs. pneumo.; assay type: in vivo
# Shigella = assay: MIC vs Shigella; assay type: cell-based
# Entero. aerog. = assay: MIC vs Entero. aerog.; assay type: cell-based
# [5] = Escherichia coli, second column, read-out: MIC
Structure (SMILES),MIC (S. aureus; first column) [µg/mL],MIC (S. aureus; second column) [µg/mL],MIC (Strep. faecalis) [µg/mL],MIC (E. coli [1]) [µg/mL],MIC (E. coli [1]; [5]) [µg/mL],MIC (Klebs. pneumo. [2]; second column) [µg/mL],MIC (Pseudomonas sp.) [µg/mL],MIC (Salmonella),MIC (Serratia marc.) [µg/mL],MIC (Staph. Villaluz) [µg/mL],ED50 (E. coli [3]; po) [mg/kg],ED50 (E. coli [3]; sc) [mg/kg],ED50 (Klebs. pneumo. [4]; po) [mg/kg],ED50 (Klebs. pneumo. [4]; sc) [mg/kg],"MIC (E. coli [1]; Escherichia coli, first column, read-out: MIC) [µg/mL]",MIC (Klebs. pneumo. [2]; first column) [µg/mL],MIC (Shigella) [µg/mL],MIC (Entero. aerog.) [µg/mL]
"CC(=O)OCC1=C(C(=O)O)N2C(=O)[C@@H](NC(=O)C(N)c3ccc(CO)cc3)[C@H]2SC1 (mixture of isomers) [Compound 37316, 7β-(DL-α-amino-p-hydroxymethylphenylacetamido)cephalosporanic acid]",12.5,6.3,200,50,25,25,> 200,12.5 µg/mL and 25 μg/me,> 200,100,> 50,8.7,> 50,20,–,–,–,–
"CC1=C(C(=O)O)N2C(=O)[C@@H](NC(=O)C(N)c3ccc(CO)cc3)[C@H]2SC1 (mixture of isomers) [Compound 47216, 7β-(DL-α-Amino-p-hydroxymethylphenylacetamido)desacetoxycephalosporanic acid]",6.3,25,–,–,50,25,> 200,25 µg/mL,> 200,200,29,33,50,> 50,25,25,25,50
